Data taken from patent US20150274719A1, “AMINO-SUBSTITUTED IMIDAZO[1,2-A]PYRIDINECARBOXAMIDES AND THEIR USE” (BAYER PHARMA AKTIENGESELLSCHAFT, priority 2012, published 2015).

Target: T1, recombinant guanylate cyclase reporter cell line (Rattus norvegicus, UniProt P19686+P20595)
T1 construct: expressed in transfected cells; host or cells: recombinant reporter cell line
T1 sequence (P19686 1-690): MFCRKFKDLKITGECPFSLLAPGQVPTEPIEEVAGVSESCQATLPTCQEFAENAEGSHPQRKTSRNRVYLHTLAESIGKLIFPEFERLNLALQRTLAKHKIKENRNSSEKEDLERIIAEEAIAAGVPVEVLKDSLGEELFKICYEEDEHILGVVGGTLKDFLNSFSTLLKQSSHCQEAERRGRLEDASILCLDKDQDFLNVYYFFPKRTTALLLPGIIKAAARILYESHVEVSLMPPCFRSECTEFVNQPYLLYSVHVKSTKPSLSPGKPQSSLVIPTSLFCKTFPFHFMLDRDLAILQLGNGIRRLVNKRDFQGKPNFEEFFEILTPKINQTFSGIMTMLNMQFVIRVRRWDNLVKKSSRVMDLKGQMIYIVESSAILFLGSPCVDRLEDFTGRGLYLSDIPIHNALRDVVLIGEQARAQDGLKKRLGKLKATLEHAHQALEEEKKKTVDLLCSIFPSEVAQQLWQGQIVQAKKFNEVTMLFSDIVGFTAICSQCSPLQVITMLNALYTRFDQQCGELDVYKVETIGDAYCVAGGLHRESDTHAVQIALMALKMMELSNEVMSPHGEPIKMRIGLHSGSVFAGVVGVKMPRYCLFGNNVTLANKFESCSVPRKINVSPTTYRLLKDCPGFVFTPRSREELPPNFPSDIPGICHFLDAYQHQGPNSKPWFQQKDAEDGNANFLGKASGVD
T1 sequence (P20595 1-619): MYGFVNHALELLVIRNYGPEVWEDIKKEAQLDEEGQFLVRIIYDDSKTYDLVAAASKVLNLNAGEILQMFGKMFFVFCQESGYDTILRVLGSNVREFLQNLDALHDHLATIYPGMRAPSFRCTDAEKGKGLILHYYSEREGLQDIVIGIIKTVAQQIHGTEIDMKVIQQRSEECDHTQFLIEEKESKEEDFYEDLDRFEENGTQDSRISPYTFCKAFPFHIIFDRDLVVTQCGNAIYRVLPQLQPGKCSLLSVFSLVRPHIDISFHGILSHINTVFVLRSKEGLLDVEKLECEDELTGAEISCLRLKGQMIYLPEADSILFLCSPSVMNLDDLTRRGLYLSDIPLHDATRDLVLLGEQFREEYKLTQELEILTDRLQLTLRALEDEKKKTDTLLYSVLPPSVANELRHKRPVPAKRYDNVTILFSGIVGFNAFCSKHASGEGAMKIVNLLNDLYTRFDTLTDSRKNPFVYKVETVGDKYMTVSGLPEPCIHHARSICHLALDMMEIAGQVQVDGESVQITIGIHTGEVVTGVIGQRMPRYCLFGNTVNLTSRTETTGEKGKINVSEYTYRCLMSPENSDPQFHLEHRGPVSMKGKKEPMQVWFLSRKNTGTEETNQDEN
Experiment: Action on recombinant guanylate cyclase reporter cell line
Type: cell-based
Details: in some cases mean values from individual determinations
Outline: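 MEC values, meaning the lowest concentration producing a detectable response, were taken from a recombinant cyclase reporter cell assay. Where repeated, individual determinations were averaged.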

SMILES	MEC (minimal effective concentration)
Cc1nc2c(OCc3c(F)cccc3F)cccn2c1C(=O)NC(CN1CCOCC1)c1ccccc1 (single isomer, unassigned; ent-8) [Example 182, ent-8-[(2,6-Difluorobenzyl)oxy]-2-methyl-N-[2-(morpholin-4-yl)-1-phenylethyl]imidazo[1,2-a]-pyridine-3-carboxamide]	3.00 µM
Cc1nc2c(OCc3c(F)cccc3F)cccn2c1C(=O)NCC1NCCc2ccccc21 (racemic) [Example 80, rac-8-[(2,6-difluorobenzyl)oxy]-2-methyl-N-(1,2,3,4-tetrahydroisoquinolin-1-ylmethyl)-imidazo[1,2-a]pyridine-3-carboxamide]	1.00 µM
Cc1cc(OCc2c(F)cccc2F)c2nc(C)c(C(=O)NC3CNCC3C(F)(F)F)n2c1 (mixture of isomers) [Example 313, 8-[(2,6-Difluorobenzyl)oxy]-2,6-dimethyl-N-[4-(trifluoromethyl)pyrrolidin-3-yl]imidazo[1,2-a]pyridine-3-carboxamide (mixture of stereoisomers)]	0.30 µM
Cc1cc(OCc2c(F)cccc2F)c2nc(C)c(C(=O)N[C@@H]3CC[C@](C)(N)C3(C)C)n2c1 [Example 324, N-[(1R,3S)-3-amino-2,2,3-trimethylcyclopentyl]-8-[(2,6-difluorobenzyl)oxy]-2,6-dimethylimidazo[1,2-a]pyridine-3-carboxamide]	1.00 µM
Cc1nc2c(OCc3c(F)cccc3F)cc(Cl)cn2c1C(=O)NCCN1CCC(F)(F)CC1 [Example 151, 6-chloro-8-[(2,6-difluorobenzyl)oxy]-N-[2-(4,4-difluoropiperidin-1-yl)ethyl]-2-methylimidazo[1,2-a]pyridine-3-carboxamide]	0.10 µM
Cc1nc2c(OCc3c(F)cccc3F)cccn2c1C(=O)NC(CN)COc1ccc(F)cc1 (racemic) [Example 58, rac-N-[1-amino-3-(4-fluorophenoxy)propan-2-yl]-8-[(2,6-difluorobenzyl)oxy]-2-methylimidazo[1,2-a]pyridine-3-carboxamide]	1.00 µM
Cc1nc2c(OCc3c(F)cccc3F)cccn2c1C(=O)NC(CN)c1ccc(F)c(F)c1 (single isomer, unassigned; enantiomer a) [Example 12, ent-N-[2-Amino-1-(3,4-difluorophenyl)ethyl]-8-[(2,6-difluorobenzyl)oxy]-2-methylimidazo[1,2-a]-pyridine-3-carboxamide (Enantiomer A)]	1.00 µM
Cc1nc2c(OCc3c(F)cccc3F)cccn2c1C(=O)NC(CN)c1ccccc1 (single isomer, unassigned; enantiomer b) [Example 18, ent-N-(2-Amino-1-phenylethyl)-8-[(2,6-difluorobenzyl)oxy]-2-methylimidazo[1,2-a]pyridine-3-carboxamide (Enantiomer B)]	0.55 µM

Second part, the molecule after the results:

MEC (minimal effective concentration)	SMILES
0.30 µM	CCCC(C)(N)CNC(=O)c1c(C)nc2c(OCc3c(F)cccc3F)cccn12 (stereo not drawn) [Example 318, ent-N-(2-amino-2-methylpentyl)-8-[(2,6-difluorobenzyl)oxy]-2-methylimidazo[1,2-a]pyridine-3-carboxamide]
0.10 µM	CCCC(C)(N)CNC(=O)c1c(CC)nc2c(OCc3c(F)cccc3F)cc(C)cn12 (racemic) [Example 301, rac-N-(2-amino-2-methylpentyl)-8-[(2,6-difluorobenzyl)oxy]-2-ethyl-6-methylimidazo[1,2-a]pyridine-3-carboxamide]
0.65 µM	Cc1cc(OCc2c(F)cccc2F)c2nc(C)c(C(=O)NCC(C)(N)CO)n2c1 (single isomer, unassigned; enantiomer b) [Example 269, ent-N-(2-Amino-3-hydroxy-2-methylpropyl)-8-[(2,6-difluorobenzyl)oxy]-2,6-dimethylimidazo-[1,2-a]pyridine-3-carboxamide (Enantiomer B)]
